Common to all, as to assay: radioligand binding, gel filtration separation of bound and free ATP, saturation fit
In test [1] the target is T1, P2K2 extracellular lectin domain (LecRK-I.5), GST-tagged (Arabidopsis thaliana, UniProt Q9M1G4, T245A).
T1 construct: gene LECRK15; extracellular lectin domain (ectodomain), GST fusion, purified from E. coli BL21-AI
T1 sequence (Q9M1G4 23-286 T245A limits assumed): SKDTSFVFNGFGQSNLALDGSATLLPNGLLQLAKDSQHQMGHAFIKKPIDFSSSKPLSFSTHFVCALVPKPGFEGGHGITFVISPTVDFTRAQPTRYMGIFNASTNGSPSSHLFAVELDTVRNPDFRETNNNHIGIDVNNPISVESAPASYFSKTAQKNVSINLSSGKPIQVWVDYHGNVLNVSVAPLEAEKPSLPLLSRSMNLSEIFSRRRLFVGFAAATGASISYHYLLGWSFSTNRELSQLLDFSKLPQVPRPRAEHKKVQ

Test [2] concerns the target T2, P2K2 extracellular lectin domain (LecRK-I.5), GST-tagged (Arabidopsis thaliana, UniProt Q9M1G4, H99A).
T2 construct: gene LECRK15; extracellular lectin domain (ectodomain), GST fusion, purified from E. coli BL21-AI
T2 sequence (Q9M1G4 23-286 H99A limits assumed): T1 sequence (Q9M1G4 23-286 T245A limits assumed) with H77A, A223T

Test [3] has as its target T3, P2K2 extracellular lectin domain (LecRK-I.5), GST-tagged (Arabidopsis thaliana, UniProt Q9M1G4).
T3 construct: gene LECRK15; extracellular lectin domain (ectodomain), GST fusion, purified from E. coli BL21-AI
T3 sequence (Q9M1G4 23-286 limits assumed): T1 sequence (Q9M1G4 23-286 T245A limits assumed) with A223T

The target of test [4] is T4, P2K2 extracellular lectin domain (LecRK-I.5), GST-tagged (Arabidopsis thaliana, UniProt Q9M1G4, S246A).
T4 construct: gene LECRK15; extracellular lectin domain (ectodomain), GST fusion, purified from E. coli BL21-AI
T4 sequence (Q9M1G4 23-286 S246A limits assumed): T1 sequence (Q9M1G4 23-286 T245A limits assumed) with A223T, S224A

The target of test [5] is T5, P2K2 extracellular lectin domain (LecRK-I.5), GST-tagged (Arabidopsis thaliana, UniProt Q9M1G4, R144A).
T5 construct: gene LECRK15; extracellular lectin domain (ectodomain), GST fusion, purified from E. coli BL21-AI
T5 sequence (Q9M1G4 23-286 R144A limits assumed): T1 sequence (Q9M1G4 23-286 T245A limits assumed) with R122A, A223T

Changes are numbered by the printed parent chain.

One may read the Kd as a measure of binding affinity in units of concentration.

Consider `Nc1ncnc2c1ncn2[C@@H]1O[C@H](COP(=O)(O)OP(=O)(O)OP(=O)(O)O)[C@@H](O)[C@H]1O` [ATP], for which the Kd in test [1] was 41.7 ± 14.1 nM; in test [2] it was above 1000 nM; in test [3] it was 41.6 ± 13.8 nM; in test [4], 109 ± 29.7 nM; in test [5], 104 ± 25 nM.

Source of the values: PMC9897758, “Computational prediction and in vitro analysis of the potential ligand binding site within the extracellular ATP receptor, P2K2” (Plant Signaling & Behavior, 2023).
